Laboratory results from US20050154052A1, “Novel crystalline forms of (s)-citalopram oxalate” (Hetero Drugs Limited, priority 2003, published 2005).
Where a name gives a salt, the structure may show the parent alone.

Test: Solubility of (S)-citalopram oxalate in alcohol
Assay type: physicochemical
Details: 5 gm in 35 ml of methanol at 25° C.
Excerpt: According to another aspect of the present invention there is provided a process for preparation of the Form II of (S)-citalopram oxalate. Thus (S)-citalopram oxalate is mixed with an alcohol. (S)-Citalopram oxalate prepared by the process described in, for example, EP 0347066 or the Form I of (S)-citalopram oxalate may be used. The alcohol is either methanol or ethanol or isopropyl alcohol. The solubility of (S)-citalopram oxalate depends on the alcohol used and volume of the alcohol to (S)-citalopram oxalate. For example, 5 gm of (S)-citalopram oxalate is soluble in 35 ml of methanol at 25° C. If (S)-citalopram oxalate is soluble in the conditions of experiment, the Form II of (S)-citalopram oxalate is precipitated from the solution. The techniques such as cooling, partial removal of the solvent, addition of anti-solvent like diisopropyl ether may be used to precipitate the Form II of (S)-citalopram oxalate. If the (S)-citalopram oxalate is insoluble in the alcohol, after mixing (S)-citalopram oxalate and the alcohol the solid is filtered from the contents to obtain Form II of (S)-citalopram oxalate.

solubility in methanol: soluble
Compound: CN(C)CCC[C@@]1(c2ccc(F)cc2)OCc2cc(C#N)ccc21 [(S)-citalopram oxalate, 1(S)-[3-(Dimethylamino)propyl]-1-(4-fluorophenyl)-1,3-dihydro-5-isobenzofurancarbonitrile]
